In article PMC6615598, “Novel antibiotics effective against gram-positive and -negative multi-resistant bacteria with limited resistance” (PLoS Biology, 2019):
Values joined by “and” are separate entries in the source; they are usually repeats but may differ in a detail not shown here. Identical values can stand only once.

What was measured:
[1] = system: S. aureus; experiment: Intracellular ATP levels of SCV versus normal colonies from skin abscesses; type: cell-based; settings: individual values
Procedure: (§1) For the cutaneous abscess model, the mice were randomly divided into 5 sets. The mice were anesthetized with isoflurane, their dorsal fur shaved, and their skin disinfected with 70% ethanol. An overnight culture of S. aureus MRSA or P. aeruginosa LESB58 was washed with 0.9% NaCl, and then a subcutaneous injection of 2 × 10^9 CFUs and an equal amount of sterile Cytodex microcarrier beads (20 mg.ml^−1, Sigma) for S. aureus MRSA, or 10^8 CFUs for P. aeruginosa were injected into the shaved area. […] Mice were monitored every day and then euthanized with CO2 on Day 6 or on Day 3. Abscesses were excised, measured, and homogenized in PBS using an Ultra-Turax. Serial dilutions of the samples were plated on BHI (MRSA) or 2YT medium (LESB58) plates and then incubated overnight at 37°C. Afterward, the CFUs were counted and expressed as log CFU/ml. Dermonecrosis areas were calculated according to the formula π × L × W. ATP levels were determined with an ATP assay kit (Promega) according to manufacturer instructions on sets of 5 colonies harboring the SCV phenotype, and sets of 5 colonies harboring a normal phenotype, after growth on BHI plates.

[2] = system: S. aureus MRSA; experiment: Cutaneous abscess mouse model (lesion size, CFU); type: in vivo, mice; settings: cutaneous abscesses from MRSA in mice; IV 24 h post-infection, 1.5 mg.kg-1; individual values
Procedure: as §1

[3] = Stability in human serum (half-life); type: in vitro ADME; settings: 25% human serum, pre-incubated 15 min at 37°C, peptide 10^−4 M, RP-HPLC peak areas, mean of biological triplicates
Procedure: (§2) (10−4 M final concentrations). At selected time intervals, 100 μl of reaction mixture was collected, quenched by 200 μl 95% EtOH, and adjusted at pH 2 to prevent peptide adsorption to serum proteins. […] Supernatants were analyzed by RP-HPLC on an Xbridge C18 column with a linear gradient of water, 0.08% TFA, and acetonitrile with 1% TFA. HPLC peak areas were used to calculate the percentages of intact compound remaining at the various time points. MIC and MBC values were determined in triplicate in many ESKAPE clinical isolates, including a dozen MDR S. aureus, by the broth microdilution method. Peptidomimetics and antibiotics were assayed in a concentration range of 1 to 128 μM. The bacterial inoculum (5 × 10^5 colony-forming units [CFUs]/well) was prepared in MHB or CAMHB (150 μl). A Biotek Synergy 2 spectrophotometer was used to record the results after 18–20 h incubation at 35°C (±2°C). […] After every hour of culture for 4 h, serial dilutions were plated on BHI plates and incubated overnight at 37°C, and then the CFUs were counted and expressed as log CFU/ml. Phosphate-buffered saline (PBS)-exposed S. aureus MRSA was included as a control.
(§3) Supplementary file pbio.3000337.s013.docx: S7 Table Peptide half-lives in human and mouse sera. […] Peptide amounts and half-lives were determined by HPLC. Experiments were conducted on 25% human or mouse sera. Values are shown in minutes. The mean values correspond to biological triplicates. HPLC, high pressure liquid chromatography. (DOCX) Click here for additional data file.

[4] = Stability in mouse serum (half-life); type: in vitro ADME; settings: 25% mouse serum, pre-incubated 15 min at 37°C, peptide 10^−4 M, RP-HPLC peak areas, mean of biological triplicates
Procedure: as §2, §3

[5] = system: Escherichia coli 066
Procedure: as §2

[6] = system: P. aeruginosa 15638
Procedure: as §2

[7] = system: Escherichia coli 283
Procedure: as §2

[8] = system: Escherichia coli 508
Procedure: as §2

[9] = system: Escherichia coli K12; settings: E. coli K12
Procedure: as §2

[10] = system: A. baumanii 11896
Procedure: as §2

[11] = system: P. aeruginosa 15644
Procedure: as §2

[12] = system: Escherichia coli 444
Procedure: as §2

[13] = system: Escherichia coli MCR−1
Procedure: as §2

[14] = system: Escherichia coli PV; settings: E. coli PV
Procedure: as §2

[15] = system: Escherichia coli ML35P; settings: E. coli ML35P
Procedure: as §2

[16] = system: P. aeruginosa PA14; settings: P. aeruginosa PA14
Procedure: as §2

[17] = system: K. pneumoniae 13829
Procedure: as §2

[18] = system: P. aeruginosa 15637
Procedure: as §2

[19] = system: Escherichia coli 146
Procedure: as §2

[20] = system: P. aeruginosa 15643
Procedure: as §2

[21] = system: Enterobacter cloacae ATCC13047; settings: Enterobacter cloacae ATCC13047
Procedure: as §2

[22] = system: Escherichia coli 13090
Procedure: as §2

[23] = system: A. baumanii 7985
Procedure: as §2

[24] = system: Escherichia coli 750
Procedure: as §2

[25] = system: K. pneumoniae 13825
Procedure: as §2

[26] = system: P. aeruginosa 15641
Procedure: as §2

[27] = system: Escherichia coli 293
Procedure: as §2

[28] = system: Escherichia coli 758
Procedure: as §2

[29] = broth microdilution, 3 independent experiments

## CN[C@H](CC(C)C)C(=O)N[C@H]1C(=O)N[C@@H](CC(N)=O)C(=O)N[C@H]2C(=O)N[C@H]3C(=O)N[C@H](C(=O)N[C@H](C(=O)O)c4cc(O)cc(O)c4-c4cc3ccc4O)[C@H](O)c3ccc(c(Cl)c3)Oc3cc2cc(c3O[C@@H]2O[C@H](CO)[C@@H](O)[C@H](O)[C@H]2O[C@H]2C[C@](C)(N)[C@H](O)[C@H](C)O2)Oc2ccc(cc2Cl)[C@H]1O [Vanco]
[1]; 'normal growing' colonies from MRSA abscesses of mice treated IV with 1.5 mg.kg-1
  Intracellular ATP level, 'normal growing': 122379 AU and 119801 AU and 111813 AU and 113023 AU and 103234 AU
[1]; SCV from MRSA abscesses of mice treated IV with 1.5 mg.kg-1
  Intracellular ATP level, SCV: 20326.9 AU and 5706.67 AU and 6923.08 AU and 10333.3 AU and 15090.9 AU
[2]
  Area of dermonecrosis: 88.6 mm2 and 44.4 mm2 and 88.5 mm2 and 82.8 mm2 and 67.1 mm2 and 13 mm2 and 197.8 mm2 and 164.7 mm2 and 166.7 mm2 and 90 mm2

## polymyxin B [reference compound]
[3]
  Half-life in human serum: 23 ± 3.33 h
[4]
  Half-life in mouse serum: 10.7 ± 2.7 h
[5]; E. coli 066
  MBC/MIC: 1
[5]; E. coli 066, clinical strain, Rennes urinary catheter, broth microdilution, 3 independent experiments
  MIC: 1 (1.3) μM
[6]; P. aeruginosa 15638
  MBC/MIC: 2
[6]; P. aeruginosa 15638, clinical strain, Caen hemoculture, broth microdilution, 3 independent experiments
  MIC: 1 (1.3) μM
[7]; E. coli 283
  MBC/MIC: 1
[7]; E. coli 283, clinical strain, Rennes urinary catheter, broth microdilution, 3 independent experiments
  MIC: 0.5 (0.65) μM
[8]; E. coli 508
  MBC/MIC: 1
[8]; E. coli 508, clinical strain, Rennes urinary catheter, broth microdilution, 3 independent experiments
  MIC: 0.5 (0.65) μM
[9]
  MBC/MIC: 1
[9]; [29]
  MIC: 0.5 (0.65) μM
[10]; A. baumanii 11896
  MBC/MIC: 2
[10]; A. baumanii 11896, clinical strain, Caen hemoculture, broth microdilution, 3 independent experiments
  MIC: 1 (1.3) μM
[11]; P. aeruginosa 15644
  MBC/MIC: 2
[11]; P. aeruginosa 15644, clinical strain, Caen hemoculture, broth microdilution, 3 independent experiments
  MIC: 1 (1.3) μM
[12]; E. coli 444
  MBC/MIC: 1
[12]; E. coli 444, clinical strain, Rennes urinary catheter, broth microdilution, 3 independent experiments
  MIC: 0.5 (0.65) μM
[13]; E. coli MCR−1
  MBC/MIC: 1
[13]; E. coli MCR−1, clinical strain, Caen hemoculture, broth microdilution, 3 independent experiments
  MIC: 2 (2.6) μM
[14]
  MBC/MIC: 1
[14]; clinical strain, Rennes vascular prosthetics, broth microdilution, 3 independent experiments
  MIC: 0.5 (0.65) μM
[15]
  MBC/MIC: 1
[16]
  MBC/MIC: 2
[16]; [29]
  MIC: 0.5 (0.65) μM
[17]; K. pneumoniae 13829
  MBC/MIC: 2
[17]; K. pneumoniae 13829, clinical strain, Caen hemoculture, broth microdilution, 3 independent experiments
  MIC: 8 (10.4) μM
[18]; P. aeruginosa 15637
  MBC/MIC: 2
[18]; P. aeruginosa 15637, clinical strain, Caen hemoculture, broth microdilution, 3 independent experiments
  MIC: 1 (1.3) μM
[19]; E. coli 146
  MBC/MIC: 1
[19]; E. coli 146, clinical strain, Rennes urinary catheter, broth microdilution, 3 independent experiments
  MIC: 1 (1.3) μM
[20]; P. aeruginosa 15643
  MBC/MIC: 2
[20]; P. aeruginosa 15643, clinical strain, Caen hemoculture, broth microdilution, 3 independent experiments
  MIC: 0.5 (0.65) μM
[21]
  MBC/MIC: 2
[21]; [29]
  MIC: 8 (10.4) μM
[22]; E. coli 13090
  MBC/MIC: 1
[22]; E. coli 13090, clinical strain, Caen hemoculture, broth microdilution, 3 independent experiments
  MIC: 0.5 (0.65) μM
[23]; A. baumanii 7985
  MBC/MIC: 1
[23]; A. baumanii 7985, clinical strain, Caen hemoculture, broth microdilution, 3 independent experiments
  MIC: 1 (1.3) μM
[24]; E. coli 750
  MBC/MIC: 1
[24]; E. coli 750, clinical strain, Rennes urinary catheter, broth microdilution, 3 independent experiments
  MIC: 1 (1.3) μM
[25]; K. pneumoniae 13825
  MBC/MIC: 2
[25]; K. pneumoniae 13825, clinical strain, Caen hemoculture, broth microdilution, 3 independent experiments
  MIC: 2 (2.6) μM
[26]; P. aeruginosa 15641
  MBC/MIC: 2
[26]; P. aeruginosa 15641, clinical strain, Caen hemoculture, broth microdilution, 3 independent experiments
  MIC: 1 (1.3) μM
[27]; E. coli 293
  MBC/MIC: 1
[27]; E. coli 293, clinical strain, Rennes urinary catheter, broth microdilution, 3 independent experiments
  MIC: 0.5 (0.65) μM
[28]; E. coli 758
  MBC/MIC: 1
[28]; E. coli 758, clinical strain, Rennes urinary catheter, broth microdilution, 3 independent experiments
  MIC: 0.5 (0.65) μM
